Assay results as given in publication PMC11003683, “Pyrrole-based inhibitors of RND-type efflux pumps reverse antibiotic resistance and display anti-virulence potential” (PLOS Pathogens, 2024).
In brackets after ≈: the same amount, converted by molar mass. Like-named read-outs stand apart in the source and are kept apart here.

Assays:
in vitro [1] = assay: in vitro; set-up: species or system H-PBMC; MTT viability assay, absorbance at 570 nm, cytotoxicity IC50; settings: human, pbmc; read-out: IC50
Procedure: (§1) The cytotoxicity assay was performed on Human Peripheral Blood Mononuclear cells (H-PBMC, Himedia, India) according to the manufacturer’s instructions. The H-PBMC (40,000 cells/well in 100 μL volume) suspension in RPMI-1640 media (containing 10% fetal bovine serum and 50 U/mL antibiotic-antimycotic solution) (Himedia^, India) was dispensed into 96-well polystyrene tissue culture-treated flat-bottom plates (Corning, U.S.). The plates were incubated for 48 h in a CO2 (5%) incubator at 37°C. After 48 h, the compounds (Ar1-Ar24) were added to the plates in a fresh medium and again incubated for 24 h in a CO2 (5%) incubator at 37°C. Next, MTT (1 mg/mL) was added to the wells, followed by incubation for 4–5 h. The formazan crystals were solubilized using a solubilizing solution (40% (v/v) dimethyl formamide in 2% (v/v) glacial acetic acid added with 16% sodium dodecyl sulfate), and the absorbance (OD570nm) was measured. Considering the lack of effect of EPIs on eukaryotic Ca^2+ ion channels, we further evaluated cytotoxicity on Human Peripheral Blood Mononuclear cells (H-PBMC). […] Our front runners, Ar1, Ar5, and Ar11, had extremely low toxicity toward H-PBMCs. […] Taken together, these experiments provide substantial evidence that Ar5 is non-toxic in vitro and can be used for therapeutic applications in vivo.

in vitro [2] = assay: in vitro; set-up: MTT viability assay on human PBMCs, absorbance at 570 nm; settings: human, pbmc; 24 h exposure, MTT; read-out: IC50
Procedure: as §1

[3] = test system: T1, Escherichia coli ATCC BAA-2774; assay: microbe, parasite or virus in culture; set-up: MIC of antibiotic alone from antibiotic potentiation assay against XDR strain; settings: ATCC BAA-2774 / ATCC BAA-2782, read-out: MIC (μg/mL) / Klebsiella pneumoniae ATCC BAA-2782 / Escherichia coli ATCC BAA-2774
T1 construct: ATCC BAA-2774
Description: (§2) We further tested the potentiation of Ar1, Ar5, Ar11, and Ar18 to RND efflux pump substrates (ciprofloxacin, levofloxacin, tetracycline, tigecycline, erythromycin, piperacillin, and chloramphenicol) against XDR E. coli ATCC BAA-2774 (expressing AcrAB-TolC), K. pneumoniae ATCC BAA-2782 (expressing AcrAB-TolC), and P. aeruginosa ATCC BAA-2795 (expressing MexAB-OprM). […] The fact that compounds potentiate a given antibiotic against efflux pump over-expressed strain but not deletion provides substantial evidence that the inhibition effect is RND efflux pump specific targeting AcrAB and MexAB efflux systems. The antibiotics, chemicals, and dyes were purchased from Sigma-Aldrich Chemical Co. (St. Louis, MO, United States) unless stated otherwise. The E. coli wild-type K-12 AG100 (argE3 thi-1 rpsLxylmtlΔ(gal-uvrB)supE44) and its derivatives, AcrB over-expressing AG100tet and AcrAB knockout AG100A (ΔacrAB::Tn903 Kan^r) were used in the study. AG100tet is derived from AG100 by gradual stepwise exposure to increased concentrations of tetracycline and was grown in the presence of 8 μg/mL tetracycline to maintain efflux pump over-expression. AG100A was grown in the presence of 100 μg/mL kanamycin to preserve the transposon. The P. aeruginosa ATCC BAA-2795 over-expressing MexAB-OprM (Chromachemie, India), and PAO750 (PAO1: ΔmexAB-oprM, ΔmexCD-oprJ, ΔmexEF-oprN, ΔmexXY) were also used in the study. The strains P. aeruginosa ATCC 27853, P. aeruginosa ATCC 15692 (PAO1), K. Pneumoniae ATCC BAA-2782, K. Pneumoniae ATCC 700603, and E. coli ATCC BAA-2774, were purchased from Himedia, India. All the strains were grown in BBL Cation-adjusted Mueller Hinton Broth (CA-MHB; BD, U.S.) at 37°C under standard conditions. Mueller Hinton Agar (MHA; Himedia, India) plates were used for bacterial viability counting.

[4] = test system: T2, Klebsiella pneumoniae ATCC BAA-2782; assay: microbe, parasite or virus in culture; set-up: MIC of antibiotic alone from antibiotic potentiation assay against XDR strain; settings: ATCCBAA2782, read-out: MIC (μg/mL) / Klebsiella pneumoniae ATCC BAA-2782
T2 construct: ATCC BAA-2782
Description: as §2

[5] = test system: T3, Pseudomonas aeruginosa ATCC BAA-2795; assay: microbe, parasite or virus in culture; set-up: MIC of antibiotic alone from antibiotic potentiation assay against XDR strain; settings: ATCC BAA-2782 / ATCC BAA-2795, read-out: MIC (μg/mL) / Klebsiella pneumoniae ATCC BAA-2782 / Pseudomonas aeruginosa ATCC BAA-2795
T3 construct: ATCC BAA-2795
Description: as §2

CCOC(=O)c1cc(-c2ccc(F)cn2)cn1Cc1ccc(F)cc1 [Ar19]
CC50 at 24 h (in vitro [1]): > 128 µg/mL
CC50 at 24 h (in vitro [2]): > 128 µg/mL

O=C(N[C@H](CO)[C@H](O)c1ccc([N+](=O)[O-])cc1)C(Cl)Cl [Chloramphenicol]
MIC [3]: 32 µg/mL
MIC [4]: 16 µg/mL
MIC [5]: 256 µg/mL

C[C@H]1COc2c(N3CCN(C)CC3)c(F)cc3c(=O)c(C(=O)O)cn1c23 [Levofloxacin]
MIC [3]: 32 µg/mL
MIC [4]: 32 µg/mL
MIC [5]: 256 µg/mL

CCOC(=O)c1cc(-c2ccc(F)cc2)c[nH]1 [Ar17]
CC50 at 24 h (in vitro [1]): 256 µg/mL (≈ 1100 µM)
CC50 at 24 h (in vitro [2]): 256 µg/mL (≈ 1100 µM)

CCOC(=O)c1cc(-c2ccc(C#N)cc2)cn1Cc1ccc(F)cc1 [Ar21]
CC50 at 24 h (in vitro [1]): 256 µg/mL (≈ 735 µM)
CC50 at 24 h (in vitro [2]): 256 µg/mL (≈ 735 µM)

CCOC(=O)c1cc(-c2cccc(CO)c2)cn1Cc1ccc(F)cc1 [Ar20]
CC50 at 24 h (in vitro [1]): > 128 µg/mL
CC50 at 24 h (in vitro [2]): > 128 µg/mL

CN(C)c1cc(NC(=O)CNC(C)(C)C)c(O)c2c1C[C@H]1C[C@H]3[C@H](N(C)C)C(O)=C(C(N)=O)C(=O)[C@@]3(O)C(O)=C1C2=O [Tigecycline]
MIC [3]: 128 µg/mL
MIC [4]: 64 µg/mL
MIC [5]: 256 µg/mL

CC[C@H]1OC(=O)[C@H](C)[C@@H](O[C@H]2C[C@@](C)(OC)[C@@H](O)[C@H](C)O2)[C@H](C)[C@@H](O[C@@H]2O[C@H](C)C[C@H](N(C)C)[C@H]2O)[C@](C)(O)C[C@@H](C)C(=O)[C@H](C)[C@@H](O)[C@]1(C)O [Erythromycin]
MIC [3]: 512 µg/mL
MIC [4]: 128 µg/mL
MIC [5]: 512 µg/mL

CCOC(=O)c1cc(-c2ccc(C(F)(F)F)cc2)cn1Cc1ccc(F)cc1 [Ar16]
CC50 at 24 h (in vitro [1]): 256 µg/mL (≈ 654 µM)
CC50 at 24 h (in vitro [2]): 256 µg/mL (≈ 654 µM)

CCOC(=O)c1cc(-c2ccc(C(F)(F)F)cc2)cn1Cc1ccc(C)cc1 [Ar24]
CC50 at 24 h (in vitro [1]): 256 µg/mL (≈ 661 µM)
CC50 at 24 h (in vitro [2]): 256 µg/mL (≈ 661 µM)

CN(C)[C@@H]1C(O)=C(C(N)=O)C(=O)[C@@]2(O)C(O)=C3C(=O)c4c(O)cccc4[C@@](C)(O)[C@H]3C[C@@H]12 [Tetracycline]
MIC [3]: 256 µg/mL
MIC [4]: 4 µg/mL
MIC [5]: 32 µg/mL

CCN1CCN(C(=O)N[C@@H](C(=O)N[C@@H]2C(=O)N3[C@@H]2SC(C)(C)[C@@H]3C(=O)O)c2ccccc2)C(=O)C1=O [Piperacillin]
MIC [3]: 512 µg/mL
MIC [4]: 1020 µg/mL
MIC [5]: 256 µg/mL

O=C(O)c1cn(C2CC2)c2cc(N3CCNCC3)c(F)cc2c1=O [Ciprofloxacin]
MIC [3]: 256 µg/mL
MIC [4]: 128 µg/mL
MIC [5]: 256 µg/mL

COC(=O)c1cc(-c2cccc(NC(C)=O)c2)cn1Cc1ccc(C)cc1 [Ar11]
CC50 at 24 h (in vitro [1]): > 256 µg/mL
CC50 at 24 h (in vitro [2]): > 256 µg/mL

CCOC(=O)c1cc(-c2ccc(F)cc2F)cn1Cc1ccc(F)cc1 [Ar18]
CC50 at 24 h (in vitro [1]): > 128 µg/mL
CC50 at 24 h (in vitro [2]): > 128 µg/mL

COC(=O)c1cc(-c2ccc(F)cc2)cn1Cc1ccc(F)cc1 [Ar1]
CC50 at 24 h (in vitro [1]): 256 µg/mL (≈ 782 µM)
CC50 at 24 h (in vitro [2]): 256 µg/mL (≈ 782 µM)
